Entries after “also recorded” stand apart in the source; their conditions may differ.
Tests used:
[1] = Part 1 SAD urine pharmacokinetics (urinary excretion, renal clearance); type: in vivo, human
Procedure: Renal clearance of KAR5417 was calculated from the area under the plasma time concentration curve (AUC0-96) for KAR5417 and the amount of KAR5417 recovered in urine (Table 21).

[2] = system: plasma 5-HIAA (a PD marker of 5-HT synthesis); experiment: Part 2 MAD biomarker: plasma 5-HIAA change from Day 1; type: in vivo, human
Source text: Biomarkers were to be evaluated in Part 2 by measuring concentrations of serotonin (5-hydroxytryptamine [5-HT]) in serum and 5-hydroxyindoleacetic acid (5-HIAA) in plasma and urine. As well, the relationship of biomarkers to PK parameters was to be evaluated.
The biomarker analysis was to be based on the Biomarker Population (all subjects with evaluable biomarker measurements at baseline [Day 1 predose] and at least one after dosing [Day 7 or Day 14]).
Biomarker data were to be collected only in Part 2. The following biomarkers were to be analyzed: • Serum 5-HT • Plasma 5-HIAA • Urine 5-HIAA/24 hours (as measured, adjusted, estimated, and per gram creatinine)
The a priori primary biomarker endpoint was to be the change in plasma 5-HIAA concentration on Day 14 from Day 1.
Linear regression was to be performed using biomarker changes, absolute and relative (%), from Day 1, at predose on Day 7 or Day 14 versus AUC0-24, Cmax, and Cmin in corresponding study days. The slopes and corresponding 95% confidence intervals (CIs) were to be tabulated.
Summary statistics (mean, standard deviation [SD], median, minimum [Min], and maximum [Max]) were to be tabulated for each biomarker, by Cohort, with absolute and relative (%) changes from Day 1 predose.
The values were to be tabulated with P values testing whether the difference of changes was equal to 0.
The biomarker portion of the study was conducted in Part 2 MAD using the Biomarker Population. The biomarkers evaluated were serum 5-HT and plasma 5-HIAA, as well as urine 5-HIAA/24 hours (as measured, adjusted, estimated, and per gram creatinine). Urinary 5-HIAA was determined by a validated (21 C.F.R. 58, GLP-compliant) method using liquid chromatographic separation and tandem mass spectrometry detection.
The Biomarker Population consisted of all subjects with evaluable baseline (Day 1 predose) and at least one postdose (Day 7 or Day 14) biomarker measurements.
Biomarker data were analyzed for each KAR5585 dose separately, for all KAR5585 doses pooled, and for all placebo subjects pooled. […]

[3] = Safety and tolerability in healthy adult subjects (Study KAR5585-101); type: in vivo, human
[4] = Part 1 SAD plasma pharmacokinetics of KAR5585 and KAR5417 after a single oral dose of KAR5585 (fasting; fed food effect); details: for AUC0-inf Geometric Mean / AUC0-tau Geometric Mean / Cmax Geometric Mean: 400 mg KAR5585 single oral dose
Procedure: Food effect was to be evaluated in Part 1, Period 2. Part 2 was permitted to begin before Part 1 was completed and, in each part, the data from each dose Cohort were to be reviewed for safety before the next dose Cohort was enrolled.
Part 1 had 6 Cohorts of 12 subjects each (for a total of 72 subjects) and Part 2 had 4 Cohorts of 12 subjects each (for a total of 48 subjects). In Part 1, the 12 subjects in Cohort 3 (400 mg) were studied twice, once under fasting conditions (Period 1) and once under fed conditions (Period 2) for food-effect assessment.
Pharmacokinetic data were to be summarized descriptively.

[5] = 100 mg to 700 mg single dose, 7-fold increase in dose
[6] = 700 mg to 2000 mg single dose, 2.86-fold increase in dose
[7] = KAR5585 100 mg single oral dose, fasted, Cohort 1
[8] = KAR5585 200 mg single oral dose, fasted, Cohort 2
[9] = KAR5585 400 mg single oral dose, fasted, Cohort 3A
[10] = KAR5585 400 mg single oral dose, fed, Cohort 3B
[11] = KAR5585 700 mg single oral dose, fasted, Cohort 4
[12] = KAR5585 1200 mg single oral dose, fasted, Cohort 5
[13] = KAR5585 2000 mg single oral dose, fasted, Cohort 6

CCOC(=O)[C@@H]1CC2(CCN(c3cc(O[C@H](c4ccc(Cl)cc4-c4ccccc4)C(F)(F)F)nc(N)n3)CC2)CN1 [KAR5585, (S)-ethyl 8-(2-amino-6-((R)-1-(5-chloro-[1,1′-biphenyl]-2-yl)-2,2,2-trifluoroethoxy)pyrimidin-4-yl)-2,8-diazaspiro[4.5]decane-3-carboxylate]
amount excreted (Ae) in urine, of the administered dose ([1]; single oral KAR5585, all dose levels): less than 0.004% | quantifiability in urine samples ([1]; single oral KAR5585, almost all subjects): could not be quantified in urine samples; also recorded: not quantifiable in urine in almost all subjects | mean percent difference of change from Day 1 in plasma 5-HIAA between KAR5585 and placebo ([2]; Day 7, any dose group): not significant | mean difference of changes from Day 1 to Day 14 in plasma 5-HIAA compared to placebo ([2]; each dose group and all doses combined, Day 14): statistically significant in favor of KAR5585 | tolerability ([3]; 400 mg single oral dose under fed conditions, 9 healthy adult subjects): well-tolerated | tolerability throughout the trial ([3]; Part 1 and Part 2, all doses): well tolerated throughout the trial | safety and tolerability ([3]; multiple ascending oral doses 100-400 mg BID up to 14 days, 36 healthy adult subjects): safe and well-tolerated | increase in mean AUC0-24 [4, 5]: 8.7 fold | increase in mean AUC0-inf [4, 5]: 8.8 fold | increase in AUC0-24 [4, 6]: 1.86 fold | increase in AUC0-inf [4, 6]: 1.78 fold | AUC0-inf Geometric Mean ([4]; Cohort 3A (Fasting)): 288 ng·h/mL | AUC0-tau Geometric Mean ([4]; Cohort 3A (Fasting)): 176 ng·h/mL | Cmax Geometric Mean ([4]; Cohort 3A (Fasting)): 42 ng/mL | AUC0-inf Geometric Mean ([4]; Cohort 3B (Fed)): 903 ng·h/mL | AUC0-tau Geometric Mean ([4]; Cohort 3B (Fed)): 854 ng·h/mL | Cmax Geometric Mean ([4]; Cohort 3B (Fed)): 165 ng/mL | AUC0-12 (Mean) [4, 7]: 48.1 ng·h/mL | AUC0-24 (Geo. Mean) [4, 7]: 47.5 ng·h/mL | AUC0-∞ (Geo. Mean) [4, 7]: 47.5 ng·h/mL | Cmax/D Geo. Mean [4, 7]: 0.132 (ng/mL)/mg | Cmax/D Mean [4, 7]: 0.139 (ng/mL)/mg | V2/F Geo. Mean [4, 7]: 5190 L | V2/F Mean [4, 7]: 5680 L | t1 Geo. Mean [4, 7]: 1.71 h | t1 Mean [4, 7]: 1.89 h | AUC0-12 (Geo. Mean) [4, 8]: 83.3 ng·h/mL | AUC0-24 (Geo. Mean) [4, 8]: 93.4 ng·h/mL | AUC0-∞ (Geo. Mean) [4, 8]: 95.3 ng·h/mL | Cmax/D Geo. Mean [4, 8]: 0.0875 (ng/mL)/mg | Cmax/D Mean [4, 8]: 0.0961 (ng/mL)/mg | V2/F Geo. Mean [4, 8]: 9610 L | V2/F Mean [4, 8]: 10300 L | t1 Geo. Mean [4, 8]: 3.17 h | t1 Mean [4, 8]: 3.63 h | AUC0-24 (Geo. Mean) [4, 9]: 283 ng·h/mL | AUC0-∞ (Geo. Mean) [4, 9]: 288 ng·h/mL | Cmax/D Geo. Mean [4, 9]: 0.105 (ng/mL)/mg | Cmax/D Mean [4, 9]: 0.132 (ng/mL)/mg | V2/F Geo. Mean [4, 9]: 8100 L | V2/F Mean [4, 9]: 8330 L | t1 Geo. Mean [4, 9]: 4.04 h | t1 Mean [4, 9]: 4.08 h | AUC0-24 (Geo. Mean) [4, 10]: 876 ng·h/mL | AUC0-tau Geo. Mean [4, 10]: 854 ng·h/mL | AUC0-∞ (Geo. Mean) [4, 10]: 903 ng·h/mL | Cmax (Geo. Mean) [4, 10]: 165 ng/mL | Cmax/D Geo. Mean [4, 10]: 0.413 (ng/mL)/mg | Cmax/D Mean [4, 10]: 0.422 (ng/mL)/mg | V2/F Geo. Mean [4, 10]: 2730 L | V2/F Mean [4, 10]: 2780 L | t1 Geo. Mean [4, 10]: 4.26 h | t1 Mean [4, 10]: 4.45 h | AUC0-12 (Mean) [4, 11]: 392 ng·h/mL | Cmax (Geo. Mean) [4, 11]: 95.2 ng/mL | Cmax/D Geo. Mean [4, 11]: 0.136 (ng/mL)/mg | Cmax/D Mean [4, 11]: 0.142 (ng/mL)/mg | V2/F Geo. Mean [4, 11]: 8390 L | V2/F Mean [4, 11]: 9120 L | t1 Geo. Mean [4, 11]: 3.42 h | t1 Mean [4, 11]: 3.46 h | tmax (Median) [4, 11]: 1.75 h | AUC0-12 (Geo. Mean) [4, 12]: 356 ng·h/mL | AUC0-12 (Mean) [4, 12]: 402 ng·h/mL | AUC0-24 (Geo. Mean) [4, 12]: 400 ng·h/mL | AUC0-tau Mean [4, 12]: 364 ng·h/mL | AUC0-∞ (Geo. Mean) [4, 12]: 406 ng·h/mL | Cmax/D Geo. Mean [4, 12]: 0.0568 (ng/mL)/mg | Cmax/D Mean [4, 12]: 0.0692 (ng/mL)/mg | V2/F Geo. Mean [4, 12]: 14500 L | V2/F Mean [4, 12]: 16900 L | t1 Geo. Mean [4, 12]: 3.40 h | t1 Mean [4, 12]: 3.58 h | Cmax (Geo. Mean) [4, 13]: 95.1 ng/mL | Cmax (Mean) [4, 13]: 104 ng/mL | Cmax/D Geo. Mean [4, 13]: 0.0475 (ng/mL)/mg | Cmax/D Mean [4, 13]: 0.0522 (ng/mL)/mg | V2/F Geo. Mean [4, 13]: 20600 L | V2/F Mean [4, 13]: 25100 L | t1 Geo. Mean [4, 13]: 4.76 h | t1 Mean [4, 13]: 4.84 h | tmax (Median) [4, 13]: 2.00 h | time up to which concentrations remained above the LLOQ ([4]; single 100 mg KAR5585, fasting): up to 4 hours | time up to which concentrations remained above the LLOQ ([4]; single 200 mg KAR5585, fasting): up to 12 hours | time up to which concentrations remained above the LLOQ ([4]; single 400 mg KAR5585, fasting): up to 12 hours | time up to which concentrations remained above the LLOQ ([4]; single 700 mg KAR5585, fasting): up to 12 hours | time up to which concentrations remained above the LLOQ ([4]; single 1200 mg KAR5585, fasting): up to 12 hours

— patent US20200237759A1, “DOSAGE REGIME AND METHOD FOR TREATING PULMONARY ARTERIAL HYPERTENSION” (Altavant Sciences GmbH, priority 2019, published 2020)
